In patent EP0427427A2, “Use of arylalkylamides in the treatment of neurodegenerative diseases” (FISONS CORPORATION, priority 1989, dated 1991):
Read-outs that look alike come from different tables or passages of the source.

Key:
[1] = test system: Rats; test: 4-vessel occlusion model of stroke, viability of CA1 neurons in the hippocampus; type: in vivo; details: ip doses of 20mg/kg twice daily for one week, first injection 30 minutes after reflow, 30 minutes 4-vessel occlusion, brains at 8 days
[2] = test system: Dogs; test: Global ischemia (clamping the ascending aorta), protection of CA1 neurons; details: iv, 8 minutes global ischemia, treatment from 30 minutes after reflow, CA1 neurons on day 8
Method: (§1) Dogs - Dogs are subjected to 8 minutes global ischemia (clamping the ascending aorta) and are treated iv with drug at 30 minutes after reflow. Treatment is given 6 hours later, b.i.d. for 2 more days and s.i.d. for 4 additional days. On day 8 the brains are removed and again drug protection of the vulnerable CA1 neurons is assessed. The Toxic doses are determined by administering the drug iv to conscious dogs in incremental doses and observing for side effects (we use preictal behaviour or convulsions as an endpoint).

[3] = test system: Mice; test: Antihypoxia studies (time to mortality in a hypoxic environment); type: in vivo; details: Mus musculus, oral, dose that produces a 50% increase in the time to mortality in an hypoxic environment
Method: Antihypoxia activity, that is, they extension of the lifetime of animals exposed to a hypoxic environment, may be conveniently measured in mice. Groups of mice are tested at various times after the intraperitoneal administration of graded doses of the test compound. The animals' survival time in a temperature controlled hypoxic environment (96% nitrogen and 4% oxygen) is recorded. A statistical comparison is made between coincident vehicle treated animals and the experimental group. […] Other modes of administration can also be used.

[4] = Inverted screen test of Coughenour et al. (TD50); details: mouse, in vivo, mice, oral
[5] = test system: Mice; test: Protection against NMDLA induced seizures (convulsions); type: in vivo; details: Mus musculus, 5 min, ip, evaluated for 5 minutes following iv injection of 150 mg/kg NMDLA
Method: NMDA blocking activity may be measured by assessing a compound's ability to protect mice from convulsions induced by intravenous administration of 150 m/k of NMDA according to the procedures of Czuczwar et al., (Neurotransmitters, Seizures and Epilepsy III, edited by G. Nistico et al., Raven Press, New York 1986, pages 235-246). […] […] Animals were kept for 60 min after NMDA dosing and mortality was recorded.

[6] = test system: Mice; test: Protection against NMDLA induced mortality; type: in vivo; details: Mus musculus, 1 h, ip, evaluated over 60 minutes after NMDLA injection (150 mg/kg iv)
Method: NMDA blocking activity may be measured by assessing a compound's ability to protect mice from convulsions induced by intravenous administration of 150 m/k of NMDA according to the procedures of Czuczwar et al., (Neurotransmitters, Seizures and Epilepsy III, edited by G. Nistico et al., Raven Press, New York 1986, pages 235-246). Groups of mice were pretreated by 30 min with the test compound by the oral or intraperitoneal routes and then given NMDA. […] Animals were kept for 60 min after NMDA dosing and mortality was recorded.

[7] = CD50: seizure following ip injection of the compound; details: mouse, in vivo, mice, no inverted screen TD50 performed, CD50 = dose when 50% of mice experience a seizure following ip injection
[8] = test system: Rats; test: Neurotoxicity TD50, narrow plank walking test; details: narrow plank test one hour after administration
Method: Rats - Rats are subjected to the 4-vessel occlusion model of stroke for 30 minutes followed by drug injection at 30 minutes after blood reflow to the brain. The drugs are administered ip twice daily for one week. At 8 days post stroke the brains are removed and protection is determined by determining viability of the vulnerable CA1 neurons in the hippocampus (neutrons associated with short term memory). […] Rats that fall are scored as failures.

[9] = test system: Dogs; details: iv
Method: as §1

[10] = test system: Dogs; details: conscious dogs, iv incremental doses
Method: as §1

SMILES | preventing loss of the CA1 neurons [1] | dose active in protecting dogs against stroke [2] [mg/kg] | ED50 [3] [mg/kg] | TD50 [4] [mg/kg] | ED50 [5] [mg/kg] | ED50 [6] [mg/kg] | TD50 [7] [mg/kg] | ip doses for TD50s relative to neurotoxicity in the rat [8] | dose active in protecting dogs against stroke [9] [mg/kg] | lowest toxic dose for convulsions [10] [mg/kg] | lowest toxic dose for preictal behaviour [10] [mg/kg]
CC(Cc1ccccc1)(NC(=O)CN)c1ccccc1 (stereo not drawn) [Compound A, 2-amino-N-(1,2-diphenyl-1-methylethyl)acetamide] | effective | 7.5 | – | – | – | – | – | – | – | – | –
NCC(=O)NC(Cc1ccccc1)c1ccccc1 (stereo not drawn) [Compound B, 2-amino-N-(1,2-diphenylethyl)acetamide] | effective | – | 19.1 | 236 | 33 | 20.6 | 82.4 | 47 | 5 | 44 | 44
